Reference: PubChem BioAssay (NCI)
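Cultured in 96-well plates, cells were exposed to test compound for 48 hours across five concentrations. Here, GI50 denotes the concentration required for 50% inhibition of growth. TGI: concentration producing complete growth inhibition.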

What was measured:
Test in all cases: DTP human tumour cell line panel, 48 h
786-0 renal = tested on: 786-0 renal
A498 renal = tested on: A498 renal
A549 NSCLC = tested on: A549 NSCLC
ACHN renal = tested on: ACHN renal
BT-549 breast = tested on: BT-549 breast
CAKI-1 renal = tested on: CAKI-1 renal
CCRF-CEM leukemia = tested on: CCRF-CEM leukemia
COLO 205 colon = tested on: COLO 205 colon
DU-145 prostate = tested on: DU-145 prostate
EKVX NSCLC = tested on: EKVX NSCLC
HCC-2998 colon = tested on: HCC-2998 colon
HCT-116 colon = tested on: HCT-116 colon
HCT-15 colon = tested on: HCT-15 colon
HL-60(TB) leukemia = tested on: HL-60(TB) leukemia
HOP-62 NSCLC = tested on: HOP-62 NSCLC
HOP-92 NSCLC = tested on: HOP-92 NSCLC
HT29 colon = tested on: HT29 colon
IGROV1 ovarian = tested on: IGROV1 ovarian
K-562 leukemia = tested on: K-562 leukemia
KM12 colon = tested on: KM12 colon
M14 melanoma = tested on: M14 melanoma
MALME-3M melanoma = tested on: MALME-3M melanoma
MCF7 breast = tested on: MCF7 breast
MDA-MB-231 breast = tested on: MDA-MB-231 breast
MDA-MB-435 = tested on: MDA-MB-435
MOLT-4 leukemia = tested on: MOLT-4 leukemia
NCI-H226 lung = tested on: NCI-H226 lung
NCI-H23 lung = tested on: NCI-H23 lung
NCI-H460 lung = tested on: NCI-H460 lung
NCI-H522 lung = tested on: NCI-H522 lung
NCI/ADR-RES ovarian = tested on: NCI/ADR-RES ovarian
OVCAR-3 ovarian = tested on: OVCAR-3 ovarian
OVCAR-4 ovarian = tested on: OVCAR-4 ovarian
OVCAR-5 ovarian = tested on: OVCAR-5 ovarian
OVCAR-8 ovarian = tested on: OVCAR-8 ovarian
PC-3 prostate = tested on: PC-3 prostate
RPMI-8226 leukemia = tested on: RPMI-8226 leukemia
RXF 393 renal = tested on: RXF 393 renal
SF-268 CNS = tested on: SF-268 CNS
SF-295 CNS = tested on: SF-295 CNS
SF-539 CNS = tested on: SF-539 CNS
SK-MEL-2 melanoma = tested on: SK-MEL-2 melanoma
SK-MEL-28 melanoma = tested on: SK-MEL-28 melanoma
SK-OV-3 ovarian = tested on: SK-OV-3 ovarian
SN12C renal = tested on: SN12C renal
SNB-19 CNS = tested on: SNB-19 CNS
SNB-75 CNS = tested on: SNB-75 CNS
SR leukemia = tested on: SR leukemia
SW-620 colon = tested on: SW-620 colon
T-47D breast = tested on: T-47D breast
U251 CNS = tested on: U251 CNS
UACC-257 melanoma = tested on: UACC-257 melanoma
UACC-62 melanoma = tested on: UACC-62 melanoma
UO-31 renal = tested on: UO-31 renal
HS 578T breast = tested on: HS 578T breast
LOX IMVI melanoma = tested on: LOX IMVI melanoma
SK-MEL-5 melanoma = tested on: SK-MEL-5 melanoma
TK-10 renal = tested on: TK-10 renal

## CCOC1(OCC)N=C(N)C2(C#N)C3(C(=O)N(C(C)C)N=C3C)C12C#N (stereo not drawn)
786-0 renal
  TGI: > 100 µM
A498 renal
  TGI: > 100 µM
A549 NSCLC
  TGI: > 100 µM
ACHN renal
  TGI: > 100 µM
BT-549 breast
  TGI: > 100 µM
CAKI-1 renal
  TGI: > 100 µM
CCRF-CEM leukemia
  TGI: > 100 µM
COLO 205 colon
  TGI: > 100 µM
DU-145 prostate
  TGI: > 100 µM
EKVX NSCLC
  TGI: > 100 µM
HCC-2998 colon
  TGI: > 100 µM
HCT-116 colon
  TGI: > 100 µM
HCT-15 colon
  TGI: > 100 µM
HL-60(TB) leukemia
  TGI: > 100 µM
HOP-62 NSCLC
  TGI: > 100 µM
HOP-92 NSCLC
  TGI: > 100 µM
HT29 colon
  TGI: > 100 µM
IGROV1 ovarian
  TGI: > 100 µM
K-562 leukemia
  TGI: > 100 µM
KM12 colon
  TGI: > 100 µM
M14 melanoma
  TGI: > 100 µM
MALME-3M melanoma
  TGI: > 100 µM
MCF7 breast
  TGI: > 100 µM
MDA-MB-231 breast
  TGI: > 100 µM
MDA-MB-435
  TGI: > 100 µM
MOLT-4 leukemia
  TGI: > 100 µM
NCI-H226 lung
  TGI: > 100 µM
NCI-H23 lung
  TGI: > 100 µM
NCI-H460 lung
  TGI: > 100 µM
NCI-H522 lung
  TGI: > 100 µM
NCI/ADR-RES ovarian
  TGI: > 100 µM
OVCAR-3 ovarian
  TGI: > 100 µM
OVCAR-4 ovarian
  TGI: > 100 µM
OVCAR-5 ovarian
  TGI: > 100 µM
OVCAR-8 ovarian
  TGI: > 100 µM
PC-3 prostate
  TGI: > 100 µM
RPMI-8226 leukemia
  TGI: > 100 µM
RXF 393 renal
  TGI: > 100 µM
SF-268 CNS
  TGI: > 100 µM
SF-295 CNS
  TGI: > 100 µM
SF-539 CNS
  TGI: > 100 µM
SK-MEL-2 melanoma
  TGI: > 100 µM
SK-MEL-28 melanoma
  TGI: > 100 µM
SK-OV-3 ovarian
  TGI: > 100 µM
SN12C renal
  TGI: > 100 µM
SNB-19 CNS
  TGI: > 100 µM
SNB-75 CNS
  TGI: > 100 µM
SR leukemia
  TGI: > 100 µM
SW-620 colon
  TGI: > 100 µM
T-47D breast
  TGI: > 100 µM
U251 CNS
  TGI: > 100 µM
UACC-257 melanoma
  TGI: > 100 µM
UACC-62 melanoma
  TGI: > 100 µM
UO-31 renal
  TGI: > 100 µM

## CCOC(=O)c1c(Cl)c2c(n1Cc1cccc(OC)c1)-c1oncc1CC2
786-0 renal
  GI50: 4.5 µM
  TGI: 52.7 µM
A498 renal
  GI50: 0.382 µM
  TGI: 5.69 µM
A549 NSCLC
  GI50: 5.16 µM
  TGI: > 100 µM
ACHN renal
  GI50: 4.54 µM
  TGI: > 100 µM
CAKI-1 renal
  GI50: 1.85 µM
  TGI: > 100 µM
CCRF-CEM leukemia
  GI50: 2.07 µM
  TGI: 84 µM
COLO 205 colon
  GI50: 1.62 µM
  TGI: 11.3 µM
DU-145 prostate
  GI50: 2.42 µM
  TGI: 27 µM
EKVX NSCLC
  GI50: 3.05 µM
  TGI: > 100 µM
HCC-2998 colon
  GI50: 3.01 µM
  TGI: 19.6 µM
HCT-116 colon
  GI50: 0.904 µM
  TGI: 24.2 µM
HCT-15 colon
  GI50: 0.836 µM
  TGI: > 100 µM
HL-60(TB) leukemia
  GI50: 0.557 µM
  TGI: 5.81 µM
HOP-62 NSCLC
  GI50: 2.89 µM
  TGI: > 100 µM
HOP-92 NSCLC
  GI50: 9.24 µM
  TGI: > 100 µM
HS 578T breast
  GI50: 1.21 µM
  TGI: 9.45 µM
HT29 colon
  GI50: 0.799 µM
  TGI: 15.1 µM
IGROV1 ovarian
  GI50: 1.23 µM
  TGI: 59 µM
K-562 leukemia
  GI50: 0.397 µM
  TGI: > 100 µM
KM12 colon
  GI50: 0.732 µM
  TGI: 77.9 µM
LOX IMVI melanoma
  GI50: 2.51 µM
  TGI: > 100 µM
M14 melanoma
  GI50: 2.07 µM
  TGI: > 100 µM
MALME-3M melanoma
  GI50: 0.646 µM
  TGI: 96.2 µM
MCF7 breast
  GI50: 0.62 µM
  TGI: > 100 µM
MDA-MB-231 breast
  GI50: 4.61 µM
  TGI: > 100 µM
MDA-MB-435
  GI50: 0.298 µM
  TGI: 15.6 µM
MOLT-4 leukemia
  GI50: 3.48 µM
  TGI: > 100 µM
NCI-H226 lung
  GI50: 6.82 µM
  TGI: > 100 µM
NCI-H23 lung
  GI50: 3.55 µM
  TGI: 60.6 µM
NCI-H460 lung
  GI50: 0.659 µM
  TGI: 13.7 µM
NCI-H522 lung
  GI50: 0.351 µM
  TGI: 6.73 µM
NCI/ADR-RES ovarian
  GI50: 0.497 µM
  TGI: 6.91 µM
OVCAR-3 ovarian
  GI50: 0.383 µM
  TGI: 2.92 µM
OVCAR-4 ovarian
  GI50: 6.46 µM
  TGI: > 100 µM
OVCAR-5 ovarian
  GI50: 10.1 µM
  TGI: > 100 µM
OVCAR-8 ovarian
  GI50: 7.27 µM
  TGI: > 100 µM
PC-3 prostate
  GI50: 5.4 µM
  TGI: > 100 µM
RPMI-8226 leukemia
  GI50: 5.15 µM
  TGI: > 100 µM
RXF 393 renal
  GI50: 2.87 µM
  TGI: 40.4 µM
SF-268 CNS
  GI50: 9.31 µM
  TGI: > 100 µM
SF-295 CNS
  GI50: 0.658 µM
  TGI: 15.9 µM
SF-539 CNS
  GI50: 2.12 µM
  TGI: 10.6 µM
SK-MEL-2 melanoma
  GI50: 5.61 µM
  TGI: 67.3 µM
SK-MEL-28 melanoma
  GI50: 4.89 µM
  TGI: > 100 µM
SK-MEL-5 melanoma
  GI50: 1.24 µM
  TGI: 10.5 µM
SK-OV-3 ovarian
  GI50: 3.36 µM
  TGI: > 100 µM
SN12C renal
  GI50: 6.04 µM
  TGI: > 100 µM
SNB-19 CNS
  GI50: 4.41 µM
  TGI: > 100 µM
SNB-75 CNS
  GI50: 1.61 µM
  TGI: 5.35 µM
SR leukemia
  GI50: 0.444 µM
  TGI: 24.1 µM
SW-620 colon
  GI50: 0.773 µM
  TGI: > 100 µM
T-47D breast
  GI50: 4.41 µM
  TGI: > 100 µM
TK-10 renal
  GI50: 6.59 µM
  TGI: > 100 µM
U251 CNS
  GI50: 4.75 µM
  TGI: > 100 µM
UACC-257 melanoma
  GI50: 6.41 µM
  TGI: > 100 µM
UACC-62 melanoma
  GI50: 0.608 µM
  TGI: 29.3 µM
UO-31 renal
  GI50: 3.37 µM
  TGI: 78.6 µM
